Measured values reported in DBAASP.
In brackets after ≈: the same amount, converted by molar mass. One block for each compound: values may come before it.

Columns and labels:
Assay in all cases: ≥ marks a high value that may be exact or a test limit, other limits are often not marked, values filed in µg/mL are converted to µM
[1] = tested on: Clavibacter michiganensis subsp. michiganensis DSM 46294
[2] = tested on: Pectobacterium carotovorum subsp. carotovorum DSM 30168
[3] = tested on: Pseudomonas corrugata DSM 7228
[4] = tested on: Pseudomonas syringae pv. syringae DSM 10604
[5] = tested on: Pseudomonas syringae pv. tomato DC3000
[6] = tested on: Staphylococcus aureus 90857
[7] = tested on: Xanthomonas vesicatoria DSM 50861
[8] = tested on: Bacillus anthracis Sterne 34F2
[9] = tested on: Bacillus subtilis var. niger ATCC 9372
Escherichia coli K91BK = tested on: Escherichia coli K91BK
[10] = tested on: Micrococcus luteus ATCC 9341
[11] = tested on: Cronobacter sakazakii DPC 6440
[12] = tested on: Listeria monocytogenes LO28
[13] = tested on: Escherichia coli ATCC 25922
Micrococcus luteus = tested on: Micrococcus luteus
[14] = tested on: Pseudomonas aeruginosa ATCC 15692
Saccharomyces cerevisiae = tested on: Saccharomyces cerevisiae
[15] = tested on: Staphylococcus aureus ATCC 25923
Bacillus cereus = tested on: Bacillus cereus
Escherichia coli = tested on: Escherichia coli
Staphylococcus aureus = tested on: Staphylococcus aureus
Acinetobacter baumannii = tested on: Acinetobacter baumannii
Enterococcus faecalis = tested on: Enterococcus faecalis
Klebsiella pneumoniae = tested on: Klebsiella pneumoniae
Pseudomonas aeruginosa = tested on: Pseudomonas aeruginosa
[16] = tested on: Staphylococcus epidermidis

SMILES: CC[C@H](C)[C@H](NC(=O)[C@H](CCCCN)NC(=O)[C@H](CCCCN)NC(=O)[C@H](CC(C)C)NC(=O)[C@H](CCCCN)NC(=O)[C@H](CCCN=C(N)N)NC(=O)[C@@H](N)CC(C)C)C(=O)N[C@@H](CC(C)C)C(=O)N[C@@H](CCCCN)C(=O)N[C@@H](CCCCN)C(=O)N[C@@H](CC(C)C)C(=O)N[C@@H](Cc1ccccc1)C(N)=O [LRKLKKILKKLF]
MIC [1]: 0.164 µM (≈ 0.25 µg/mL) | MIC [2]: 1.64 µM (≈ 2.5 µg/mL) | MIC [3]: 0.164 µM (≈ 0.25 µg/mL) | MIC [4]: 0.164 µM (≈ 0.25 µg/mL) | MIC [5]: 0.327 µM (≈ 0.5 µg/mL) | MIC [6]: 6.25 µM (≈ 9.54 µg/mL) | MIC [7]: 0.0654 µM (≈ 0.0999 µg/mL)

MIC [1]: 1.57 µM (≈ 2.5 µg/mL) | MIC [2]: 1.57 µM (≈ 2.5 µg/mL) | MIC [3]: 1.57 µM (≈ 2.5 µg/mL) | MIC [4]: 1.57 µM (≈ 2.5 µg/mL) | MIC [5]: 0.628 µM (≈ 0.999 µg/mL) | MIC [6]: 25 µM (≈ 39.8 µg/mL) | MIC [7]: 0.628 µM (≈ 0.999 µg/mL)
SMILES: CC[C@H](C)[C@H](NC(=O)[C@H](CC(C)C)NC(=O)[C@H](CCCN=C(N)N)NC(=O)[C@H](CCCN=C(N)N)NC(=O)[C@H](CC(C)C)NC(=O)[C@@H](NC(=O)[C@H](CCCN=C(N)N)NC(=O)[C@H](CCCN=C(N)N)NC(=O)[C@@H](NC(=O)[C@@H](NC(=O)[C@H](CCCN=C(N)N)NC(=O)[C@@H](N)CC(C)C)[C@@H](C)CC)[C@@H](C)CC)[C@@H](C)CC)C(N)=O [LRIIRRILRRLI]

SMILES: CC[C@H](C)[C@H](NC(=O)[C@H](CCCN=C(N)N)NC(=O)[C@H](CCCN=C(N)N)NC(=O)[C@H](CC(C)C)NC(=O)[C@H](CC(N)=O)NC(=O)[C@H](CCCCN)NC(C)=O)C(=O)N[C@H](C(=O)N[C@@H](CCCN=C(N)N)C(=O)N[C@@H](CCCCN)C(=O)N[C@H](C(=O)N[C@H](C(=O)N[C@@H](Cc1cnc[nH]1)C(=O)N[C@H](C(=O)N[C@H](C(=O)N[C@@H](CCCCN)C(=O)N[C@@H](CCCCN)C(=O)N[C@@H](Cc1ccc(O)cc1)C(=O)NCC(N)=O)[C@@H](C)CC)[C@@H](C)CC)[C@@H](C)CC)[C@@H](C)CC)[C@@H](C)O [KNLRRITRKIIHIIKKYG]
MIC [8]: 25 µM (≈ 57.3 µg/mL) | MIC [9]: 1.56 µM (≈ 3.58 µg/mL) | MIC (Escherichia coli K91BK): ≥ 100 µM

MIC [10]: 0.4 µM (≈ 0.716 µg/mL)
SMILES: CC[C@H](C)[C@H](N)C(=O)N[C@@H](CC(C)C)C(=O)N1CCC[C@H]1C(=O)N[C@@H](C)C(=O)N[C@@H](CCCCN)C(=O)N[C@@H](Cc1c[nH]c2ccccc12)C(=O)N1CCC[C@H]1C(=O)N[C@@H](Cc1c[nH]c2ccccc12)C(=O)N[C@@H](Cc1c[nH]c2ccccc12)C(=O)N1CCC[C@H]1C(=O)N[C@@H](Cc1c[nH]c2ccccc12)C(=O)N[C@@H](CCCN=C(N)N)C(=O)N[C@@H](CCCN=C(N)N)C(N)=O [ILPAKWPWWPWRR]

MIC [11]: ≥ 39.1 µM | MIC [12]: 9.77 µM (≈ 18.3 µg/mL)
SMILES: CC[C@H](C)[C@H](NC(=O)[C@@H](N)Cc1c[nH]c2ccccc12)C(=O)N[C@@H](CCC(N)=O)C(=O)N[C@@H](C)C(=O)N[C@@H](CCCCN)C(=O)N[C@H](C(=O)N[C@@H](CCCCN)C(=O)N[C@H](C(=O)N[C@H](C(=O)N1CCC[C@H]1C(=O)N[C@@H](Cc1ccc(O)cc1)C(=O)N[C@H](C(=O)N[C@@H](CCCN=C(N)N)C(=O)N[C@@H](Cc1ccc(O)cc1)C(=O)N[C@@H](CC(C)C)C(=O)O)C(C)C)[C@@H](C)CC)C(C)C)[C@@H](C)O [WIQAKTKVIPYVRYL]

MIC [13]: 16 µM (≈ 32.3 µg/mL) | MIC (Micrococcus luteus): 2 µM (≈ 4.04 µg/mL) | MIC [14]: ≥ 128 µM | MIC (Saccharomyces cerevisiae): ≥ 64 µM | MIC [15]: > 256 µM
SMILES: CC[C@H](C)[C@H](NC(=O)[C@H](C)NC(=O)[C@H](CCCCN)NC(=O)[C@H](C)NC(=O)[C@H](C)NC(=O)[C@H](CCCCN)NC(=O)CNC(=O)[C@H](Cc1ccccc1)NC(=O)[C@H](C)NC(=O)[C@@H](NC(=O)CNC(=O)[C@H](C)NC(=O)[C@H](CCCCN)NC(=O)[C@@H](NC(=O)[C@H](C)NC(=O)[C@H](CCSC)NC(=O)CN)[C@@H](C)O)[C@@H](C)O)C(=O)N[C@H](C(=O)NCC(=O)N[C@@H](C)C(=O)N[C@@H](C)C(=O)N[C@@H](CC(C)C)C(=O)O)[C@@H](C)CC [GMATKAGTAFGKAAKAIIGAAL]

MIC (Bacillus cereus): 30.4 µM (≈ 64 µg/mL) | MIC (Escherichia coli): 122 µM (≈ 256 µg/mL) | MIC (Staphylococcus aureus): 15.2 µM (≈ 32 µg/mL)
SMILES: CC(C)C[C@H](NC(=O)[C@H](CCCCN)NC(=O)[C@H](Cc1ccccc1)NC(=O)[C@@H](NC(=O)[C@@H](NC(=O)CNC(=O)[C@H](CC(C)C)NC(=O)[C@@H](N)Cc1ccccc1)C(C)C)C(C)C)C(=O)N[C@@H](C)C(=O)N[C@@H](CO)C(=O)N[C@@H](CCCCN)C(=O)N[C@H](C(=O)N[C@@H](Cc1ccccc1)C(=O)N1CCC[C@H]1C(=O)N[C@@H](C)C(=O)N[C@H](C(=O)N[C@H](C(=O)NCC(=O)N[C@@H](CCCCN)C(=O)N[C@H](C(=O)O)C(C)C)C(C)C)C(C)C)C(C)C [FLGVVFKLASKVFPAVVGKV]

MIC (Acinetobacter baumannii): 5.2 µM (≈ 12.8 µg/mL) | MIC (Enterococcus faecalis): 10.3 µM (≈ 25.4 µg/mL) | MIC (Escherichia coli): 5.2 µM (≈ 12.8 µg/mL) | MIC (Klebsiella pneumoniae): 21 µM (≈ 51.7 µg/mL) | MIC (Pseudomonas aeruginosa): 10.3 µM (≈ 25.4 µg/mL) | MIC (Staphylococcus aureus): 20.6 µM (≈ 50.8 µg/mL) | MIC [16]: 10.3 µM (≈ 25.4 µg/mL)
SMILES: CC[C@H](C)[C@H](NC(=O)CNC(=O)[C@H](CCCN=C(N)N)NC(=O)[C@H](Cc1ccc(O)cc1)NC(=O)[C@H](CC(C)C)NC(=O)[C@H](Cc1cnc[nH]1)NC(=O)CNC(=O)[C@H](Cc1ccccc1)NC(=O)[C@@H](N)Cc1c[nH]c2ccccc12)C(=O)N[C@H](C(=O)N[C@@H](CO)C(=O)N[C@H](C(=O)N[C@H](C(=O)N[C@@H](CCCCN)C(=O)N[C@@H](Cc1cnc[nH]1)C(=O)N[C@H](C(=O)N[C@@H](Cc1cnc[nH]1)C(=O)NCC(=O)N[C@@H](CC(C)C)C(=O)N[C@@H](CC(C)C)C(=O)N[C@@H](CO)C(=O)NCC(=O)O)C(C)C)C(C)C)C(C)C)[C@@H](C)O [WFGHLYRGITSVVKHVHGLLSG]

SMILES: CC(=O)N[C@@H](CCCCN)C(=O)N[C@@H](CC(C)C)C(=O)N[C@@H](Cc1c[nH]c2ccccc12)C(=O)N[C@@H](CCCCN)C(=O)N[C@@H](CCCCN)C(=O)N[C@@H](Cc1c[nH]c2ccccc12)C(=O)N[C@@H](CCCCN)C(=O)N[C@@H](CCCCN)C(=O)N[C@@H](Cc1c[nH]c2ccccc12)C(=O)N[C@@H](CC(C)C)C(=O)N[C@@H](CCCCN)C(N)=O [KLWKKWKKWLK]
MIC [8]: ≥ 100 µM | MIC [9]: 6.25 µM (≈ 10.1 µg/mL) | MIC (Escherichia coli K91BK): ≥ 100 µM

MIC [13]: 64 µM (≈ 149 µg/mL) | MIC (Micrococcus luteus): ≥ 32 µM | MIC [14]: ≥ 256 µM | MIC (Saccharomyces cerevisiae): ≥ 128 µM | MIC [15]: > 256 µM
SMILES: CC[C@H](C)[C@H](NC(=O)[C@H](Cc1ccccc1)NC(=O)CNC(=O)[C@H](CCCCN)NC(=O)[C@H](C)NC(=O)[C@H](Cc1ccccc1)NC(=O)[C@H](CCCCN)NC(=O)[C@H](CCCCN)NC(=O)[C@H](C)NC(=O)[C@H](CO)NC(=O)[C@H](Cc1cnc[nH]1)NC(=O)[C@H](C)NC(=O)[C@@H](NC(=O)[C@H](CCC(=O)O)NC(=O)[C@H](CCCCN)NC(=O)[C@H](CC(C)C)NC(=O)CN)C(C)C)C(=O)N[C@@H](CO)C(=O)NCC(=O)N[C@@H](CC(C)C)C(=O)N[C@H](C(=O)NCC(=O)N[C@@H](CO)C(=O)O)[C@@H](C)O [GLKEVAHSAKKFAKGFISGLTGS]

MIC [1]: 6.82 µM (≈ 9.99 µg/mL) | MIC [2]: 6.82 µM (≈ 9.99 µg/mL) | MIC [3]: 6.82 µM (≈ 9.99 µg/mL) | MIC [4]: 0.682 µM (≈ 0.999 µg/mL) | MIC [5]: 6.82 µM (≈ 9.99 µg/mL) | MIC [6]: ≥ 62.5 µM | MIC [7]: 6.82 µM (≈ 9.99 µg/mL)
SMILES: CC[C@H](C)[C@H](NC(=O)[C@@H](NC(=O)[C@H](CCCCN)NC(=O)[C@H](CCCCN)NC(=O)[C@@H](NC(=O)[C@@H](NC(=O)[C@H](CCCCN)NC(=O)[C@H](C)NC(=O)[C@H](CCCCN)NC(=O)[C@H](CCCCN)NC(=O)[C@H](CCCCN)NC(=O)[C@@H](N)CCCN=C(N)N)[C@@H](C)CC)[C@@H](C)CC)[C@@H](C)CC)C(N)=O [RKKKAKIIKKII]

SMILES: CC[C@H](C)[C@H](NC(=O)[C@H](CCCCN)NC(=O)[C@H](CO)NC(=O)[C@H](Cc1ccccc1)NC(=O)[C@H](CC(C)C)NC(=O)[C@H](CCCCN)NC(=O)[C@H](CCC(=O)O)NC(=O)[C@H](CC(C)C)NC(=O)[C@H](CCCN=C(N)N)NC(=O)[C@H](CCCCN)NC(=O)[C@H](Cc1ccccc1)NC(C)=O)C(=O)N[C@@H](Cc1c[nH]c2ccccc12)C(=O)N[C@@H](CC(N)=O)C(=O)N[C@@H](Cc1c[nH]c2ccccc12)C(=O)N[C@@H](CCCCN)C(N)=O [FKRLEKLFSKIWNWK]
MIC [8]: 14.9 µM (≈ 30.8 µg/mL) | MIC [9]: 6.25 µM (≈ 12.9 µg/mL) | MIC (Escherichia coli K91BK): ≥ 100 µM
